Source: PubChem BioAssay (NCI)
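Growth conditions: 96-well plates. Treatment: test compound, 48 hours, 5 concentrations. Analysis: linear interpolation between bracketing concentrations; unreached endpoints set to highest concentration. GI50 is the concentration that inhibits growth by half. At the TGI there is no net growth.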

Assays:
Experiment in all cases: growth of human tumour cells (NCI), 48 h
BT-549 breast = tested on: BT-549 breast
CCRF-CEM leukemia = tested on: CCRF-CEM leukemia
HOP-92 NSCLC = tested on: HOP-92 NSCLC
HS 578T breast = tested on: HS 578T breast
K-562 leukemia = tested on: K-562 leukemia
MDA-MB-435 = tested on: MDA-MB-435
NCI-H226 lung = tested on: NCI-H226 lung
SK-MEL-5 melanoma = tested on: SK-MEL-5 melanoma
SN12C renal = tested on: SN12C renal
UACC-257 melanoma = tested on: UACC-257 melanoma

Structure (SMILES) | TGI (BT-549 breast) | TGI (CCRF-CEM leukemia) | TGI (HOP-92 NSCLC) | TGI (HS 578T breast) | TGI (K-562 leukemia) | TGI (MDA-MB-435) | TGI (NCI-H226 lung) | TGI (SK-MEL-5 melanoma) | TGI (SN12C renal) | TGI (UACC-257 melanoma) | GI50 (BT-549 breast) | GI50 (HOP-92 NSCLC) | GI50 (HS 578T breast) | GI50 (MDA-MB-435) | GI50 (NCI-H226 lung) | GI50 (SK-MEL-5 melanoma) | GI50 (SN12C renal)
CCOC(=O)C(C(=S)Nc1ccccc1)c1nn2c(=O)cc(C)nc2s1 (stereo not given) | 78.7 µM | > 100 µM | 57.4 µM | > 100 µM | 49 µM | 47.7 µM | 70 µM | 41.1 µM | > 100 µM | 52.2 µM |  |  |  |  |  |  | 
COc1ccc(/C=C2\N=C(c3ccccc3)N(N=C3NC(=O)CC(=O)N3)C2=O)cc1 | > 100 µM | > 100 µM | > 100 µM | > 100 µM | > 100 µM | > 100 µM | > 100 µM | > 100 µM | > 100 µM | > 100 µM |  |  |  |  |  |  | 
O=c1oc2cc(O)ccc2c(O)c1C(c1cccnc1)c1c(O)c2ccc(O)cc2oc1=O | > 100 µM |  | > 100 µM | > 100 µM | > 100 µM | > 100 µM | > 100 µM | > 100 µM | > 100 µM | > 100 µM |  |  |  |  |  |  | 
N=C(N)SCc1ccc(Cl)cc1Cl (tested in a mixture with another compound) | 36 µM | 15.5 µM | 34.6 µM | 45.2 µM | 25.5 µM | 18.3 µM | 40.9 µM | 29.2 µM | 27 µM | 20.7 µM |  |  |  |  |  |  | 
Cc1ccc(-n2[nH]nc(C#N)c2=O)cc1 | > 100 µM | > 100 µM |  | > 100 µM | > 100 µM | > 100 µM | > 100 µM | > 100 µM | > 100 µM | > 100 µM |  |  |  |  |  |  | 
COCOc1c(C(O[Si](C)(C)C(C)(C)C)c2cnc(Sc3ccccc3)n2C)ccc(OC)c1OC (stereo not given) | 4.02 µM | 9 µM | 6.36 µM | 6.17 µM |  | 3.26 µM | 4.14 µM | 3.21 µM | 3.31 µM | 4.6 µM |  |  |  |  |  |  | 
Nc1[nH]c(=S)nc2snnc12 | > 100 µM | > 100 µM | > 100 µM | > 100 µM | > 100 µM | > 100 µM | > 100 µM | > 100 µM | > 100 µM | > 100 µM |  |  |  |  |  |  | 
CC1OC(O[C@H]2C3C=CO[C@@H](OC4OC(CO)C(O)C(O)C4O)C3[C@@]3(COC(=O)/C=C/c4ccc(O)cc4)O[C@@H]23)C(O)C(O)C1O (stereo not given in full) | > 100 µM |  | > 100 µM | > 100 µM | > 100 µM | > 100 µM | > 100 µM | > 100 µM | > 100 µM | > 100 µM |  |  |  |  |  |  | 
N#CCCC1(CCC#N)CCCCCCCCC(CCC#N)(CCC#N)C(=O)C1=O |  |  | > 100 µM | > 100 µM | > 100 µM | > 100 µM | > 100 µM |  | > 100 µM | > 100 µM |  |  |  |  |  |  | 
Cn1c2ccccc2c2c(=O)[nH]c(=O)[nH]c21 | > 100 µM | > 100 µM | > 100 µM | > 100 µM | > 100 µM | > 100 µM | > 100 µM | > 100 µM | > 100 µM | > 100 µM |  |  |  |  |  |  | 
CC(=O)OC(CCC1(C)OC1COc1ccc(CCNC(=O)c2ccccc2)cc1)C(C)(C)OC(C)=O (stereo not given) |  | > 100 µM | > 100 µM |  | > 100 µM |  | > 100 µM | 17.4 µM | > 100 µM | 25.8 µM |  |  |  |  |  |  | 
COc1ccc(/C=c2\sc3n(c2=O)C(N)=C(C#N)C(c2ccc(OC)cc2)C=3c2nc3ccccc3[nH]2)cc1 (stereo not given) |  | > 100 µM | 70 µM |  | > 100 µM |  | 49.2 µM | 36.8 µM | > 100 µM | 78.8 µM |  |  |  |  |  |  | 
N#C/C(=C\c1cc(Cl)cc(Cl)c1)c1ccccn1 | 48.7 µM | > 100 µM |  |  | > 100 µM |  | 85.7 µM | > 100 µM | > 100 µM | > 100 µM |  |  |  |  |  |  | 
CCCCCCCCCCCCCC[n+]1ccc2c(C)c3c(c(C)c2c1)c1cc(O)ccc1n3CC | 1.46 µM |  | 1.32 µM | 3.67 µM |  | 1.03 µM | 1.96 µM | 0.724 µM | 1.31 µM |  | 0.339 µM | 0.301 µM | 0.975 µM | 0.314 µM | 0.418 µM | 0.258 µM | 0.341 µM
NC1CC2NC3CCCCC3NC2CC1N (stereo not given) | > 100 µM | > 100 µM |  | > 100 µM | > 100 µM | > 100 µM | > 100 µM | 67.3 µM | > 100 µM | > 100 µM |  |  |  |  |  |  | 
CC(C)C1=CCC2C(=C1)CCC1C(C)(C(=O)O)CCCC21C (stereo not given) (tested in a mixture with another compound) | > 100 µM | > 100 µM | > 100 µM | > 100 µM |  | > 100 µM | > 100 µM | > 100 µM | > 100 µM | > 100 µM |  |  |  |  |  |  | 
CC(=O)O[C@@H]1C2=C(C)C=C(O2)[C@H]2O[C@]2(C)C[C@H]2C=C(C(=O)O2)[C@H](OC(C)=O)CC1[C@@]1(C)CO1 (stereo not given in full) | 48.5 µM | 29.6 µM |  |  | 36.5 µM | 71.8 µM | > 100 µM | > 100 µM | 69.8 µM | > 100 µM |  |  |  |  |  |  | 
Cc1cccnc1/N=C/c1c(O)n(C)c(=O)[nH]c1=O | > 100 µM |  | > 100 µM | > 100 µM |  | > 100 µM | > 100 µM | > 100 µM | > 100 µM | > 100 µM |  |  |  |  |  |  | 
CC(=O)OCC1OC(SC2OC(COC(C)=O)C(OC(C)=O)C(OC(C)=O)C2OC(C)=O)C(OC(C)=O)C(OC(C)=O)C1OC(C)=O (stereo not given) | > 100 µM | > 100 µM |  |  | > 100 µM | > 100 µM | > 100 µM | > 100 µM | > 100 µM | > 100 µM |  |  |  |  |  |  | 
O=C1/C(=C/c2ccccc2O)N=C(c2ccccc2)N1c1nc2ccccc2s1 |  | > 100 µM | > 100 µM | 58.4 µM | > 100 µM | > 100 µM | 77.8 µM | 23.3 µM |  | 79.2 µM |  |  |  |  |  |  | 
CC(C)[Si](OC1=CCC[C@H]2NC(=O)[C@@H](Cc3ccccc3)[C@@]12C)(C(C)C)C(C)C | 24.1 µM | 10.2 µM | 6.67 µM | 18.5 µM | 12.5 µM | 13.4 µM |  | 9.58 µM | 9.85 µM | 16.3 µM |  |  |  |  |  |  | 
Fc1ccc2nc3n(c2c1)C(c1c(Cl)cccc1Cl)SC3 (stereo not given) | > 100 µM |  | > 100 µM | > 100 µM |  | > 100 µM | > 100 µM | > 100 µM | > 100 µM | > 100 µM |  |  |  |  |  |  | 
